Counter-ions that a name gives are not always drawn.
What was measured:
[1] = tested on: Prostaglandin E2 concentrations in sponge exudates; experiment: Prostaglandin synthesis in carrageenin sponge inflammatory exudate; format: in vivo; conditions: Rattus norvegicus, po; male rats, sponges impregnated with 2% carrageenin, exudates collected 24 hours after implantation; read-out: ED50 (mg/kg p.o.) Prostaglandin Production (rat)
Experimental: (§1) The compound of Example 1 was subjected to the following tests. Results are given in Table II as ED50 mg/kg upon oral administration. Results are also provided by way of comparison for the compound 3-methylamino-1-(3-trifluoromethylphenyl)-2-pyrazoline (Compound A) which is disclosed in European Specification 55 418.
(§2) Inflammatory exudates were collected 24 hours after the subcutaneous implantation in male rats (180-220g) of sterile polyester sponges impregnated with 2% carrageenin. Prostaglandin E2 concentrations in sponge exudates were measured by bioassay and total leucocyte numbers were estimated using counting chambers and phase contrast microscopy. Drugs were administered orally in aqueous solution to groups of five animals at the time of sponge implantation, 5-8 hours later and 3 hours before sponge removal. Results are expressed as a percentage of control values obtained from similar groups of animals receiving vehicle alone. ED50 values were calculated for active compounds. The full dose-response data for lead compounds were subjected to regression analysis and ED50 values with 95% confidence limits have been obtained.

total leucocyte numbers = experiment: Leucocyte accumulation in carrageenin sponge inflammatory exudate; format: in vivo; conditions: Rattus norvegicus, po, male rats, sponges impregnated with 2% carrageenin, exudates collected 24 hours after implantation, read-out: ED50 (mg/kg p.o.) Leucocyte Migration (rat)
Experimental: as §1, §2

Carrageenin Oedema = experiment: Carrageenin-induced hind paw oedema; format: in vivo; conditions: Rattus norvegicus, po; female rats, sub-plantar 2% carrageenin, swelling measured 1-4 hours after injection
Experimental: as §1
Oedema was induced by the sub-plantar injection of 2% carrageenin (0.1 ml) in the hind paws of female rats (100-i30g). Swelling was measured 1-4 hours following carrageenin injection using a micrometer gauge. Drugs in aqueous solution were administered orally to groups of five rats at the time of carrageenin injection. Mean swelling was expressed as a percentage of control values obtained from similar groups of animals receiving vehicle alone.

PBQ Writhing = experiment: Phenylbenzoquinone (PBQ) induced writhing (pain); format: in vivo; conditions: Mus musculus, po; p.o. 1 hour before PBQ 2.5 mg/kg i.p.; female mice
Experimental: as §1
Writhing was induced in groups of 5 female mice (20-25g) following the intraperitoneal injection of phenylbenzoquinone (PBQ; 2.5 mg/kg). Anti-nociceptive effects of drugs were assessed by observing the reduction in writhing responses 10-12½ min after PBQ injection. Drugs were administered orally in aqueous solution 1 hour before PBQ injection and drug effects were expressed as a percentage of control values obtained from animals receiving vehicle alone.

Cyclooxygenase = experiment: Enzyme assay, inhibition of cyclooxygenase (method closely based on Borgeat et al); format: biochemical
Toxicity: ulcerogenicity = format: in vivo; conditions: rat, doses in the range 50-100 mg/kg

IC50 (Cyclooxygenase)	SMILES	ED50 [1]	ED50 (total leucocyte numbers)	ED50 (Carrageenin Oedema)	ED50 (PBQ Writhing)	ulcerogenic (Toxicity: ulcerogenicity)
–	CNC1=NN(c2cccc(C(F)(F)F)c2)CC1 [Compound A, 3-methylamino-1-(3-trifluoromethylphenyl)-2-pyrazoline, reference compound]	20 mg/kg	20 mg/kg	26 mg/kg	20 mg/kg	–
4.7 µM	CSc1cccc(N2CCC(N)=N2)c1 [Example 1, 3-amino-1-(3-methylthiophenyl)-2-pyrazoline]	14 mg/kg	6.5 mg/kg	20 mg/kg	15 mg/kg	not to be ulcerogenic
10 µM	CNC1=NN(c2cccc(SC)c2)CC1 [Example 3, 3-methylamino-1-(3-methylthiophenyl)-2-pyrazoline hydrobromide]	–	–	–	–	–
> 1 µM	C#CCNC1=NN(c2cccc(SC)c2)CC1 [Example 7, 1-(3-Methylthiophenyl)-3-(2-propynylamino)-2-pyrazoline hydrochloride]	–	–	–	–	–

From patent publication EP0119449A1, “Aminopyrazoline derivatives” (THE WELLCOME FOUNDATION LIMITED, priority 1983, dated 1984)
